Values of other authors, collected in patent US7435725B2, “Oral compositions and methods for prevention, reduction and treatment of radiation injury” (The Quigly Corporation, priority 2001, dated 2008).

Key:
[1] = system: Salmonella Typhimurium TA98 and TA 1538; conditions: Trp-P-2 (3-amino-1-methyl-5H-pyrido(4,3-b)indole)

Compound	reduction of mutations due to γ-radiation (E. coli B/r WP2 trp-)	reduction of mutation rate induced by Trp-P-2 [1]
O=C(O)C[CH2][Ge](=[O])[O][Ge](=[O])[CH2]CC(=O)O [Ge-132]	twenty-fold	–
[Ge+4].[O-2].[O-2] [Germanium oxide]	–	40-67 folds
